Measured values as given in US6713500B2, “Agent for controlling animal diseases caused by parasites” (Ishihara Sangyo Kaisha Ltd., priority 1999, dated 2004).
Where two headings read alike, the source gives them in different places.

System: Eimeria tenella of wild type (fresh immature oocysts)
Experiment: microbe, parasite or virus in culture
Assay type: cell-based
Conditions: read-out: Mortality of oocysts (%)
Method: Chicks were infested with Eimeria tenella of wild type to obtain fresh immature oocycts. The obtained fresh immature oocysts were exposed to a solution of each test substance having a predetermined concentration for 10 or 30 minutes. The exposed immature oocysts were centrifuged at 1500 min^−1 for 5 minutes, and the supernatant was removed. Then, a 2% potassium bichromate aqueous solution was added, and sporulation was carried out at 25° C. for 4 days, whereupon the ratio of mature oocysts (sporulated oocysts) to the number of observed oocysts, was calculated.
Mortality of oocysts={1−(sporulation rate with exposure to test substance)/(sporulation rate without exposure to test substance)}×100

Row | SMILES | mortality at 0.1 ppm (10 min) | mortality at 1 ppm (10 min) | mortality at 10 ppm (10 min) | mortality at 0.1 ppm (0.5 h) | mortality at 1 ppm (0.5 h) | mortality at 10 ppm (0.5 h) | mortality at 0.1 ppm (10 min, Exposure time: 10 min, 0.1 ppm) | mortality at 1 ppm (10 min, Exposure time: 10 min, 1 ppm) | mortality at 10 ppm (10 min, Exposure time: 10 min, 10 ppm) | mortality at 0.1 ppm (0.5 h, Exposure time: 30 min, 0.1 ppm) | mortality at 1 ppm (0.5 h, Exposure time: 30 min, 1 ppm) | mortality at 10 ppm (0.5 h, Exposure time: 30 min, 10 ppm)
1 | Cc1ccc(-c2c(Cl)nc(C#N)n2S(=O)(=O)N(C)C)cc1 [compound 1, 4-chloro-2-cyano-1-dimethylsulfamoyl-5-(4-methylphenyl)imidazole] | 43.8% | 36.9% | 42.5% | 51.1% | 80.3% | 87.9% | – | – | – | – | – | –
2 | CCc1ccc(C(F)c2c(Cl)nc(C#N)n2S(=O)(=O)N(C)C)cc1 (stereo not drawn) [compound 5, 4-chloro-2-cyano-1-dimethylsulfamoyl-5-(4-ethyl-α-fluorobenzyl)imidazole] | – | – | – | – | – | – | 34.4% | 30% | 75% | 71.3% | 75.2% | 72.6%
